Assay results published in the supplement of paper PMC10307832.

What was measured:
Experiment in all cases: relative viability (nuclei count vs DMSO), 5 days (fraction); higher = more cells survive
[1] = compound: C1CC2=C(C1)C=C(C=C2)OC3=NC(=C4C(=N3)N(C=N4)CC5=CC=C(C=C5)C6=CC=CC=C6)N[C@@H](CC7=CC=CC=C7)CO [QS11] + CC(C)C[C@H](NC(=O)[C@H](Cc1ccccc1)NC(=O)c1cnccn1)B(O)O [Bortezomib] (partner 0.002 µM)
Procedure, shortened: (§1)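 Lung cancer cell lines, seeded in 1536-well plates, were treated the following day by pin tool with a single drug or with five library-drug doses (not always all listed) in √10 steps on top of a fixed anchor-drug dose. Cells were fixed and nuclei stained in one step after 5 days, and nuclei were counted. Relative viability is the nuclei count for treated wells divided by that for vehicle wells, reported as medians of duplicate plates.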

[2] = compound: C[As](C)SC[C@H](NC(=O)CC[C@H](N)C(=O)O)C(=O)NCC(=O)O [Darinaparsin] + CCNC(=O)c1noc(-c2cc(C(C)C)c(O)cc2O)c1-c1ccc(CN2CCOCC2)cc1 [Luminespib] (partner 0.01 µM)
Procedure, shortened: as §1

[3] = compound: C1CC2=C(C1)C=C(C=C2)OC3=NC(=C4C(=N3)N(C=N4)CC5=CC=C(C=C5)C6=CC=CC=C6)N[C@@H](CC7=CC=CC=C7)CO [QS11] + C[C@@H](Oc1cc(-c2cnn(C3CCNCC3)c2)cnc1N)c1c(Cl)ccc(F)c1Cl [Crizotinib] (partner 1 µM)
Procedure, shortened: as §1

[4] = compound: CC1=C(C=C(C=C1)NC(=O)C2=CC(=CC=C2)C(C)(C)C#N)NC3=CC4=C(C=C3)N=CN(C4=O)C [AZ628] + Nc1ncn([C@H]2C[C@H](O)[C@@H](CO)O2)c(=O)n1 [Decitabine] (partner 2 µM)
Procedure, shortened: as §1

Cell Line	relative viability ([1]; first compound 0.08 µM)	relative viability ([1]; first compound 0.253 µM)	relative viability ([1]; first compound 0.8 µM)	relative viability ([1]; first compound 2.53 µM)	relative viability ([1]; first compound 8 µM)	relative viability ([2]; first compound 0.08 µM)	relative viability ([2]; first compound 0.8 µM)	relative viability ([2]; first compound 2.53 µM)	relative viability ([2]; first compound 8 µM)	relative viability ([3]; first compound 0.08 µM)	relative viability ([3]; first compound 0.253 µM)	relative viability ([3]; first compound 0.8 µM)	relative viability ([3]; first compound 2.53 µM)	relative viability ([3]; first compound 8 µM)	relative viability ([4]; first compound 0.08 µM)	relative viability ([4]; first compound 0.253 µM)	relative viability ([4]; first compound 0.8 µM)	relative viability ([4]; first compound 2.53 µM)	relative viability ([4]; first compound 8 µM)
NCI-H322M	1.31	1.04	1.27	1.4	1.63	1.01	0.859	0.596	0.839	0.934	0.835	0.79	0.754	1	0.659	0.716	0.696	0.681	0.688
NCI-H1755	0.953	0.893	0.605	0.76	0.61	0.491	0.393	0.411	0.57	0.889	0.826	0.509	0.677	0.691	0.763	0.691	0.718	0.73	0.676
LU99A	0.878	1.37	1.17	1.11	0.706	0.228	0.24	0.241	0.222	0.554	0.586	0.544	0.446	0.385	0.825	0.669	0.806	0.447	0.386
HCC-44	0.885	0.76	0.681	0.766	0.697	1.47	1.12	0.954	0.804	0.868	0.729	0.577	0.688	0.519	0.97	0.999	1	0.953	0.947
EBC-1	0.535	0.444	0.479	0.408	0.271					0.19	0.203	0.206	0.224	0.238					
NCI-H1623						0.538	0.572	0.496	0.43										
NCI-H2170						0.82	0.381	0.727	1.1	1.32	1.1	1.02	1.12	1.51	0.448	0.483	0.446	0.439	0.456
NCI-H1703	0.323	0.376	0.254	0.236	0.203					1.08	0.749	0.585	0.73	0.951					
NCI-H1563	0.822	0.825	0.853	0.769	0.722	0.588	0.429	0.495	0.473	0.836	0.937	0.925	0.86	0.814					
